This note sets out measurements from PubChem BioAssay AID1996.

As a reminder, the solubility (kinetic) is solubility judged after dilution from a stock solution rather than from solid.

≈ marks a conversion by molar mass, not a printed value.

For the data set the following is noted: buffer; pH 7.4; 200.0 µM.
For `O=C(CNC(=O)c1ccc(N2CCCC2=O)cc1)Nc1ccc(F)c(F)c1F`, the kinetic solubility turned out to be 5.5 µg/mL (≈ 14.1 µM).

Regarding `Cc1ccc(OCCCN2CCOCC2)cc1`, the solubility (kinetic) was found to be 26.7 µg/mL (≈ 113 µM).

The compound `CCOc1ccc(NC2=NCCCS2)cc1` returned a solubility (kinetic) greater than 35.4 µg/mL.

In turn, `CC1(C)CC(/C=C/c2ccccc2)=Nc2ccccc2N1` returned a kinetic solubility of 27.2 µg/mL (≈ 98.4 µM).

Regarding `O=C(Nc1cccc(C(F)(F)F)c1)OC1CN2CCC1CC2` (stereo not drawn), the solubility (kinetic) was greater than 47.1 µg/mL.

In turn, `CC(C)OCc1c(C(=O)Nc2nccs2)oc2ccccc12` registered a kinetic solubility of 2.6 µg/mL (≈ 8.22 µM).

Turning to `CCC(CC)C(=O)c1c[nH]c(C(=O)NCc2cccnc2)c1`, the kinetic solubility worked out at 42.2 µg/mL (≈ 141 µM).

Consider `Cc1cccc(NC(=S)NC(=O)C2CC2)c1`, for which the kinetic solubility was greater than 35.1 µg/mL.

On to `Cc1ccc(F)cc1N=Cc1c(O)c2ccccc2oc1=O`, for which the solubility (kinetic) was less than 0.6 µg/mL.

On to `CC1CCN(C(=O)CCCC(=O)N2CCC(C)CC2)CC1`, for which the kinetic solubility was greater than 44.2 µg/mL.

For the compound `N/C(=N\OC(=O)c1ccc(Cl)cc1Cl)c1ccncc1`, the kinetic solubility worked out at 16.5 µg/mL (≈ 53.2 µM).

For the compound `Cc1cccc(-n2c(-c3ccccc3)nc3ccccc3c2=O)n1`, the solubility (kinetic) is greater than 47 µg/mL.

For the compound `O=S(=O)(Nc1cccc(S(=O)(=O)N2CCCC2)c1)c1cccs1`, the solubility (kinetic) was determined as 51.9 µg/mL (≈ 139 µM).

In turn, `COc1cc(C(=O)NC2CCCc3ccccc32)cc(OC)c1OC` (stereo not drawn) returned a kinetic solubility of 5.9 µg/mL (≈ 17.3 µM).

Consider `CCOc1ccc(C(C)NC(=O)Nc2ccc(F)cc2F)cc1` (stereo not drawn), for which the kinetic solubility turned out to be 1.8 µg/mL (≈ 5.62 µM).

Take `Cc1ccc(C(=O)CN2C(=O)C(C)Oc3ccccc32)cc1` (stereo not drawn): the solubility (kinetic) stood at 21.6 µg/mL (≈ 73.1 µM).

With `Cc1ccccc1NC(=O)CSc1nc2ccccc2c(=O)n1C`, the kinetic solubility stood at 3 µg/mL (≈ 8.84 µM).

`Cc1cccc(C2C3=C(CCCC3=O)N=C3c4ccccc4C(=O)C32)c1` (stereo not drawn) came in with a kinetic solubility of 2.3 µg/mL (≈ 6.74 µM).

Regarding `COc1ccc(OC)c(NC(=O)Nc2cccnc2)c1`, the kinetic solubility is greater than 41 µg/mL.

`COc1ccc(/C=C/C(=O)OCC(=O)NC(C)CCc2ccccc2)cc1OC` (stereo not drawn) came in with a solubility (kinetic) of 23.9 µg/mL (≈ 60.1 µM).

In turn, `Cc1ccc(CCC(=O)Nc2ccc([N+](=O)[O-])cc2)o1` showed a solubility (kinetic) of 30.9 µg/mL (≈ 113 µM).

In turn, `O=C(NCCc1c[nH]c2ccccc12)c1ccccc1` yielded a solubility (kinetic) of 34.7 µg/mL (≈ 131 µM).

Compound `Cc1ccc(NC(=O)CN(C)C(=O)c2ccc(Cl)c(S(=O)(=O)NCc3ccco3)c2)cc1` yielded a solubility (kinetic) of 9 µg/mL (≈ 18.9 µM).

The compound `CCOc1ccccc1C1CC(=O)Nc2cc(C)c(C)cc21` (stereo not drawn) gave a kinetic solubility of less than 0.6 µg/mL.

Turning to `CN(C)S(=O)(=O)c1ccc(N2CCCC2)c(C(=O)Nc2nccs2)c1`, the solubility (kinetic) was found to be 51.6 µg/mL (≈ 136 µM).

Take `CC(=O)Nc1ccc(NC(=S)NC(=O)c2ccc(-c3ccccc3)cc2)cc1`: the kinetic solubility is 0.9 µg/mL (≈ 2.31 µM).

`COCC(C)N=C1SCCN1Cc1ccccc1` (stereo not drawn) showed a kinetic solubility of 35.3 µg/mL (≈ 134 µM).

As to `CCOc1ccc(NC(=S)N(C)C)cc1`, the kinetic solubility was greater than 33.6 µg/mL.

Consider `O=C1Nc2ccccc2/C1=C/c1ccnc2ccccc12`, for which the solubility (kinetic) stood at 3.5 µg/mL (≈ 12.9 µM).

On to `CCC(C)NC(=O)CN1C(=O)c2cccc3cccc1c23` (stereo not drawn), for which the solubility (kinetic) was found to be 6.3 µg/mL (≈ 22.3 µM).

`CN1CCN(C(=O)/C=C/c2c(F)cccc2Cl)CC1` gave a kinetic solubility greater than 42.4 µg/mL.

For the compound `Cc1nc(-c2cc(-c3ccc(Cl)cc3)no2)cs1`, the kinetic solubility is less than 0.3 µg/mL.

In turn, `CCOC(=O)C1CCN(S(=O)(=O)c2ccc(C)c(C)c2)CC1` came in with a solubility (kinetic) of 4.5 µg/mL (≈ 13.8 µM).

For `O=C(NCC1CCCO1)c1cc2cc(Cl)ccc2[nH]1` (stereo not drawn), the solubility (kinetic) worked out at 17 µg/mL (≈ 61 µM).

Consider `O=C(COc1ccc(F)cc1Br)NCC1COc2ccccc2O1` (stereo not drawn), for which the solubility (kinetic) worked out at 17.5 µg/mL (≈ 44.2 µM).

For the compound `COc1ccc(-n2c(CCC(=O)O)ccc2-c2ccccc2)cc1`, the kinetic solubility was greater than 48.2 µg/mL.

`O=C(O)c1ccc(S(=O)(=O)N2CCSCC2)cc1` registered a solubility (kinetic) of 42.9 µg/mL (≈ 149 µM).

Compound `CC(NC(=S)Nc1ccc(F)cc1)c1ccccc1` (stereo not drawn) came in with a solubility (kinetic) of 27.7 µg/mL (≈ 101 µM).

As for `CCN(CC)C(=O)c1ccccc1NC(=O)c1ccccc1C`, the kinetic solubility is greater than 46.6 µg/mL.

With `CN(C)C(=S)Nc1ccc(Cl)cc1`, the solubility (kinetic) is greater than 32.2 µg/mL.

For the compound `NS(=O)(=O)c1ccc(NC(=O)COC(=O)c2ncc(Cl)c(Cl)c2Cl)cc1`, the kinetic solubility was 54.7 µg/mL (≈ 125 µM).

On to `Nc1cccc(-c2cc3ccccc3oc2=O)c1`, for which the solubility (kinetic) is greater than 35.6 µg/mL.

In turn, `CC1CC1C(=O)N(C)CC(=O)Nc1cccc(F)c1` (stereo not drawn) showed a solubility (kinetic) greater than 39.6 µg/mL.

In turn, `O=C(Nc1ccccc1)c1cccc(C(=O)Nc2ccccc2)n1` had a kinetic solubility of 0.3 µg/mL (≈ 0.945 µM).

The compound `Cc1ccc(CNS(=O)(=O)c2ccc(C)s2)cc1` returned a solubility (kinetic) greater than 42.2 µg/mL.

The compound `C/C(=N/OC(=O)c1ccc(C(F)(F)F)cc1)c1oc(C)nc1C` returned a solubility (kinetic) of 8.1 µg/mL (≈ 24.8 µM).

`O=C(CN1C(=O)COc2ccccc21)NCCN1CCOCC1` had a kinetic solubility greater than 47.9 µg/mL.

With `Cc1cnc(C(=O)OCC(=O)N(CC(C)C)C2CCS(=O)(=O)C2)cn1` (stereo not drawn), the solubility (kinetic) is greater than 55.4 µg/mL.

With `COc1ccc(C=O)cc1OC(=O)N1CCOCC1`, the solubility (kinetic) was greater than 39.8 µg/mL.

As to `CC(=O)Nc1ccc(N/C=C/C(=O)c2ccc(Br)cc2)cc1`, the solubility (kinetic) was 1 µg/mL (≈ 2.78 µM).

`Cc1ccnn1-c1ccc(C(=O)NCc2ccccc2CN2CCOCC2)cc1` yielded a solubility (kinetic) greater than 58.6 µg/mL.

With `Cc1cccc(CS(=O)(=O)c2ncc(CO)n2C)c1`, the solubility (kinetic) was greater than 42.1 µg/mL.

The compound `CC(=O)N(C)c1ccc(NS(=O)(=O)c2cccc3nsnc23)cc1` had a solubility (kinetic) greater than 54.4 µg/mL.
